Among the data in article PMC10339607, “Screening and identification of emodin as an EBV DNase inhibitor to prevent its biological functions” (Virology Journal, 2023) are IC50 values, retold here.

Bounds are passed on as bounds.

T1 sequence (Q1HVE7 whole entry): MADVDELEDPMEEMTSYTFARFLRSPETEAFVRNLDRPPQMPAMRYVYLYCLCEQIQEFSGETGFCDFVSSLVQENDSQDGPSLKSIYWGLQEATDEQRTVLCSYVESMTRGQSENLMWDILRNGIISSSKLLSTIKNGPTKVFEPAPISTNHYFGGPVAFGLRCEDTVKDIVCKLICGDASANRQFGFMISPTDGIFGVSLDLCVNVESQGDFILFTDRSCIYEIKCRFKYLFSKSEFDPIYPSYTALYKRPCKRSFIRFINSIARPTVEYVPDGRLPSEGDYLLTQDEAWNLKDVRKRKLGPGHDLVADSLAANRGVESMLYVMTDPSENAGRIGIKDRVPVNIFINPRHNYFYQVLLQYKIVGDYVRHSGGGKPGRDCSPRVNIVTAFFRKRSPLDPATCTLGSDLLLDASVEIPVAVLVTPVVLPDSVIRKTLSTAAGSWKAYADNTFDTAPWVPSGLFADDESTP

The assay addresses T1, EBV DNase (BGLF5) (Epstein-barr virus strain ag876, UniProt Q1HVE7).
T1 construct: full-length wild-type, 470 amino acids; pET-15b His-tag; E. coli BL21(DE3) pLysS
Description: PicoGreen fluorescence nuclease activity assay. Type of assay: biochemical.
In turn, `C[S@@+]([O-])CCCCN=C=S` [sulforaphane] came in with an IC50 above 100 µM.

For `C=CCSSCC=C` [diallyl disulfide], the IC50 was above 100 µM.

`O=C(O[C@@H]1Cc2c(O)cc(O)cc2O[C@@H]1c1cc(O)c(O)c(O)c1)c1cc(O)c(O)c(O)c1` [epigallocatechin gallate]: the IC50 is 89 µM.

`O=c1c(O)c(-c2ccc(O)cc2)oc2cc(O)cc(O)c12` [Kaempferol] yielded an IC50 of 69 µM.

Compound `Cc1cc(O)c2c(c1)C(=O)c1cc(O)cc(O)c1C2=O` [emodin] returned an IC50 of 31 µM.

One may read the IC50 as the midpoint of a concentration-inhibition curve. A high value points to weaker potency in that assay.
